Where two headings read alike, the source gives them in different places.
How the values were obtained:
[1] = target: T1, PAF specific receptor binding site on rabbit platelet plasma membranes (Oryctolagus cuniculus, UniProt G1TEI7); assay: Inhibition of 3H-PAF binding to rabbit platelet plasma membranes; details: read-out: % Inhibition of PAF Binding
T1 construct: from tissue; host or cells: rabbit platelets (plasma membrane suspension)
Method: In vitro, they inhibit PAF-induced functions in both the cellular and tissue levels by disturbing the PAF binding to its specific receptor site. The ability of a compound of formula (I) to inhibit the PAF binding to its specific receptor binding site on rabbit platelet plasma membranes was measured by an assay recently developed by us.
The inhibition of H^3 -PAF binding to the rabbit platelet plasma membrane by a PAF-antagonist of Formula (I) was determined by a method employing isotropic labeling and filtration techniques. Generally, a series of Tris-buffered solutions of the selected antagonist at predetermined concentrations were prepared. Each of these solutions contains 1 pmole of ^3 H-PAF, a known amount of the test antagonist, and a sufficient amount of the pH 7.5 Tris-buffer solution (10 mM Tris, 0.25% bovine serum albumin, and 150 mM NaCl per ml water) to make the final volume of 1 ml. After adding into a set of test tubes each with 100 μg of the platelet plasma membrane suspension (S. B. Hwang, et al., Biochemistry, 22, 4756 (1983)) and one of the Tris-buffer solutions described above, the resulting mixture in each test tube was incubated at 0° C. for about one hour or until the reaction was complete. Two control samples, one of which (C1) contains all the ingredients described above except the antagonist and the other (C2) contains C1 plus a 1000-fold excess of unlabeled PAF, were also prepared and incubated simultaneously with the test samples. After the incubation was completed, the contents of each test tube were filtered under vacuo through a Whatman GF/C fiberglass filter and the residue washed rapidly several times with a total of 20 ml cold (0°-5° C.) Tris-buffer solution. Each washed residue was then suspended in 10 ml scintillation solution (Aquasol 2, New England Nuclear, Connecticut) and the radioactivity was counted in a Packard Tri-Carb 460CD Liquid Scintillation System. Defining the counts from a test sample as "Total binding with antagonist"; the counts from the control sample C1, as "Total binding C1 "; and the counts from the control sample C2 as "non-specific binding C2 ", the percent inhibition of each test antagonist can be determined by the following equation: [formula]

[2] = system: PAF-induced cutaneous vascular permeability; assay: In vivo assay: inhibition of PAF-induced increase of cutaneous vasopermeability in guinea pigs after oral dosing; details: guinea pig
Method: The specific PAF-antagonistic activities are further established by in vivo assays following the protocol (modified procedure of Humphrey et al., Lab. Investigation, 46, 422 (1982)) described below:
Protocol for the Evaluation of the Oral Activity of
PAF Antagonists or the Inhibition of PAF-Induced
Increase of Vasopermeability by PAF-Antagonists
I. Animal species: 5 guinea pigs (400-500 g)
(4.) Ground and suspend a PAF antagonist of formula
(I) with intensive sonication in 3 ml of 0.5%
aqueous methylcellulose solution.
(5.) Administer orally to each of the animals T1,
T2, T3 and T4 an appropriate amount (in
terms of mg/kg of bodyweight) of the antagonist
solution from 4), except the control animal
(6.) Forty minutes after the oral administration,
(7.) After 20 minutes or when the anesthetics became
effective, inject intracardially to each animal
and inject intracutaneously, in duplicate 0.1
ml of a PAF solution in Tris-buffer or 0.1 ml
of the Tris-buffer itself (control) according
(9.) Wait for 30 minutes or until the blue color
(13.) In the meantime, extract a 100 μl sample of
(15.) Measure the absorbance of each supernatant from
Palo Alto, CA). Calculate the amount of Evans
blue in each skin sample in terms of the volume
(μl) of the exuded blood plasma according to
the following equation: […]
(16.) Draw a plasma exudation curve
(17.) Calculate the percent inhibition of PAF-induced
cutaneous vascular permeability from measuring
the area under the plasma exudation curve of
the control animal (AC) and that of an
animal treated orally with an antagonist
(AD), for example T1, according to the […]

[3] = Table 1, E (trans), dose 0.1 μM
[4] = Table 1, E (trans), dose 0.5 μM

T1 sequence (G1TEI7 1-342): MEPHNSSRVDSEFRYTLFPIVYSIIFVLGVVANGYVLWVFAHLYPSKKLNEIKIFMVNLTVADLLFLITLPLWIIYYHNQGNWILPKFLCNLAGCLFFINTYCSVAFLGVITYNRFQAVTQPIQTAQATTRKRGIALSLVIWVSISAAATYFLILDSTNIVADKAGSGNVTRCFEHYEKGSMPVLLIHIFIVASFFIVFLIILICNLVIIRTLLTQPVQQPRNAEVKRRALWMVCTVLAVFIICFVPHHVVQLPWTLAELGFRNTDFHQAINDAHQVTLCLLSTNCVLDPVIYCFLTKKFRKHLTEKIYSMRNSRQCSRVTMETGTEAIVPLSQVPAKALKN

SMILES	inhibition at 0.05 µM [1] [%]	inhibition at 0.1 µM [1] [%]	inhibition at 0.25 µM [1] [%]	inhibition at 0.5 µM [1] [%]	inhibition at 1 µM [1] [%]	inhibition at 2.5 µM [1] [%]	inhibition at 5 µM [1] [%]	% In Vivo Inhibition of PAF Receptor ([2]; 10 mg/kg) [%]	% In Vivo Inhibition of PAF Receptor ([2]; 20 mg/kg) [%]	% In Vivo Inhibition of PAF Receptor ([2]; 30 mg/kg) [%]	inhibition at 0.1 µM [1, 3] [%]	inhibition at 0.5 µM [1, 4] [%]	inhibition at 1 µM ([1]; Table 1, E (trans), dose 1 μM) [%]	inhibition at 5 µM ([1]; Table 1, E (trans), dose 5 μM) [%]	% In Vivo Inhibition of PAF Receptor ([2]; 50 mg/kg) [%]
COCCC1=C(C)/C(=C\c2ccc(S(N)(=O)=O)cc2)c2ccc(OC)cc21 [E CH2CH2OCH3 / SO2NH2 / OCH3, E 1-(4-aminosulfonylphenyl)methylene-5-methoxy-2-methyl-1H-3-indenyl-(2-methoxy)ethane]	20	40	58	76	80	100	100	28	60	67	–	–	–	–	–
COc1ccc2c(c1)C(CCSC)=C(C)/C2=C\c1ccc(S(N)(=O)=O)cc1 [E CH2CH2SCH3 / SO2NH2 / OCH3, E 1-(4-aminosulfonylphenyl)methylene-5-methoxy-2-methyl-1H-3-indenyl-(2-methylthio)ethane]	–	–	–	–	–	–	–	30	46	–	34	78	100	–	–
COc1ccc2c(c1)C(CCS(C)(=O)=O)=C(C)/C2=C\c1ccc(S(N)(=O)=O)cc1 [E CH2CH2SO2CH3 / SO2NH2 / OCH3, E 1-(4-aminosulfonylphenyl)methylene-5-methoxy-2-methyl-1H-3-indenyl-(2-methylsulfonyl)ethane]	–	–	–	–	–	–	–	9	45	–	35	61	81	100	–
COC(=O)CC1=C(C)/C(=C\c2ccc(S(N)(=O)=O)cc2)c2ccc(OC)cc21 [E CH2COOCH3 / SO2NH2 / OCH3, E methyl 1-(4-aminosulfonylphenyl)methylene-5-methoxy-2-methyl-1H-3-indenylacetate]	–	–	–	–	–	–	–	–	–	–	35	70	84	100	0

— patent US4656190A, “Indene derivatives and their use as PAF-antagonists” (Merck & Co., Inc., priority 1983, dated 1987)
